Data on seven molecules can be found in ChEMBL document CHEMBL1201862, “PubChem BioAssay data set” (2004).

In experiment [1] the target is T1, SUMO-activating enzyme (Homo sapiens, UniProt Q9UBT2). In words: SUMOylation inhibitor hit validation, confirmation, SUMOylation inhibitor project, biochemical, AlphaScreen (AID 2018). It counts as functional.
Experiment [2] has as its target T1, SUMO-activating enzyme. In words: inhibitors of in vitro SUMOylation cascade, primary screen, biochemical, HTRF, uHTS (AID 2006). It counts as protein-complex assay.
Experiment [3] concerns the target T2, ORF 73 (Human herpesvirus 8, UniProt O40947).
T2 sequence (O40947 whole entry): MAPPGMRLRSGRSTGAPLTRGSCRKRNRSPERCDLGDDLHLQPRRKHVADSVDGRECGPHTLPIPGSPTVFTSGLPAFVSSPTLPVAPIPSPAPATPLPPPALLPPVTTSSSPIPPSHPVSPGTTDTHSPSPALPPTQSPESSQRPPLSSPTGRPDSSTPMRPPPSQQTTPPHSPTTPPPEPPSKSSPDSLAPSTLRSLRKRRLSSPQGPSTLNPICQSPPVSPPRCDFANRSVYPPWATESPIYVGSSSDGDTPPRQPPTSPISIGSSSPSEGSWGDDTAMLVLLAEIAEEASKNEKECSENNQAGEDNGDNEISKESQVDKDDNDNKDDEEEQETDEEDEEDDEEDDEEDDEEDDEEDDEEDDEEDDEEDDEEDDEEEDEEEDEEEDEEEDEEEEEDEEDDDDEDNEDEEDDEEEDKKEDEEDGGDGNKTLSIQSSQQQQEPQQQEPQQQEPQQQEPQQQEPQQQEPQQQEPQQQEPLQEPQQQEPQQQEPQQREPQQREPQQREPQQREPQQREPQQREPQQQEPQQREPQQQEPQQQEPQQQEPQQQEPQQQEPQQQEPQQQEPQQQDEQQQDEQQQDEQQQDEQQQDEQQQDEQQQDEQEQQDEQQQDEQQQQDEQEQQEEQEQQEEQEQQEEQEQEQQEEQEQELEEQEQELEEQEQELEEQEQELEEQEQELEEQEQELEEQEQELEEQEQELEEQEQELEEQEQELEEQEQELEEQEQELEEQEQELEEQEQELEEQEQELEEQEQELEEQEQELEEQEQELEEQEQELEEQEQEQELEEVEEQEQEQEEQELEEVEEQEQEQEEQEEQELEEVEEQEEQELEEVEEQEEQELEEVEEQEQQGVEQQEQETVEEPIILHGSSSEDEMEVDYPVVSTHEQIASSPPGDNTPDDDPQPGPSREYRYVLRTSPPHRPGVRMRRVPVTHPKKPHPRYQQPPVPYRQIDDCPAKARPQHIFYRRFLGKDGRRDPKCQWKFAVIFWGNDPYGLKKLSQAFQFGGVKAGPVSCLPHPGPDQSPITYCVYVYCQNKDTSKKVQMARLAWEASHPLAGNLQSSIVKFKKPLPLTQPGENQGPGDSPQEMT
The experiment can be described thus: inhibitors of C-LANA binding to LBS DNA, dose response, biochemical, fluorescence polarization, cherry-picked samples (AID 504725).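 Also: fluorescence polarization of a labeled DNA duplex reporting LANA DNA binding; potency is for inhibitors that block LANA binding to the DNA.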 Set-up: species or system Human gammaherpesvirus 8.

The target in experiment [4] is T3, Rac GTPase-activating protein 1 (Homo sapiens, UniProt Q9H0H5).
T3 sequence (Q9H0H5 whole entry): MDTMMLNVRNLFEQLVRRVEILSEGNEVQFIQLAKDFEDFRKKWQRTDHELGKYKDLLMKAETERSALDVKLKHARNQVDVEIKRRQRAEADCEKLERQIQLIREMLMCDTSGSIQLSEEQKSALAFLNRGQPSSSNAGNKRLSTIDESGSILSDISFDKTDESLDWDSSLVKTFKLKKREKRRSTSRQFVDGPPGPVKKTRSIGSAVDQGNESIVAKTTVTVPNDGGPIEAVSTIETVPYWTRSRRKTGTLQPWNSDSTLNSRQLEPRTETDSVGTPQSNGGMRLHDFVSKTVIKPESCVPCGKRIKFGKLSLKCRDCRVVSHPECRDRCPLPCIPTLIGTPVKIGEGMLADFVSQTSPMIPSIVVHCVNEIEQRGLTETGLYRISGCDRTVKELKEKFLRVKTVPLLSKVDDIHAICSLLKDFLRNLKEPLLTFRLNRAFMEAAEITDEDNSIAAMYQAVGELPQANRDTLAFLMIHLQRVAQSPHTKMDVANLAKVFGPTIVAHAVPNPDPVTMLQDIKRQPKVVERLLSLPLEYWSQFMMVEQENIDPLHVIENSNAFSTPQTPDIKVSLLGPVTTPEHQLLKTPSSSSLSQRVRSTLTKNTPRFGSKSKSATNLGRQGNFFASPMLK
The experiment can be described thus: MgcRacGAP GTPase-activating activity inhibitors, confirmation, biochemical, ADP Hunter fluorescence, primary and confirmatory (AID 624330). It counts as functional.

In experiment [5] the target is T4, DNA dC->dU-editing enzyme APOBEC-3A (Homo sapiens, UniProt P31941). In words: APOBEC3A DNA deaminase inhibitors, dose response, biochemical (AID 504722). The format is functional.
T4 sequence (P31941 whole entry): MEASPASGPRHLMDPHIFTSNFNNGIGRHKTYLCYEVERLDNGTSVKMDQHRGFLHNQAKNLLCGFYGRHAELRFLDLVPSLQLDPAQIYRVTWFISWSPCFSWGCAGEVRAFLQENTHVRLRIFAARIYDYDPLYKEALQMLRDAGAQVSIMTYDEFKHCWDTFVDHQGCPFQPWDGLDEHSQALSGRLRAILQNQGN
The target in experiment [6] is T5, DNA dC->dU-editing enzyme APOBEC-3G (Homo sapiens, UniProt Q9HC16). The experiment can be described thus: Dose Response confirmation of small molecule APOBEC3G DNA Deaminase Inhibitors via a fluorescence-based single-stranded DNA deaminase assay. [Related pubchem assays (depositor defined):AID493012, AID493028]. The format is functional.
T5 sequence (Q9HC16 whole entry): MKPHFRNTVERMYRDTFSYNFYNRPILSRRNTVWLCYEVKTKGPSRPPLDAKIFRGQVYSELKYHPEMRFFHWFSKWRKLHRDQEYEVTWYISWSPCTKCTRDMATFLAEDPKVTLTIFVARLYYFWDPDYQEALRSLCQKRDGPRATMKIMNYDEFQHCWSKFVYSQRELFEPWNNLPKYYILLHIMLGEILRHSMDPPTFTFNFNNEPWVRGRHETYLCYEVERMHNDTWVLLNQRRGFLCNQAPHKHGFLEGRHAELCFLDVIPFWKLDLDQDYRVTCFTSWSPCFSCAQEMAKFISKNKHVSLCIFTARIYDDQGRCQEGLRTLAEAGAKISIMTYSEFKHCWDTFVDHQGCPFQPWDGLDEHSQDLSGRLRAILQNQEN
Experiment [7] has as its target Glucose-6-phosphate 1-dehydrogenase (Homo sapiens, UniProt P11413). In words: human G6PD enzyme inhibitors, dose response, selectivity assay for P. falciparum G6PD inhibitor project, biochemical, fluorescence (AID 504792). It counts as functional.
The target of experiment [8] is Large T antigen (Simian virus 40, UniProt P03070). It counts as functional, Betapolyomavirus macacae.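 Also: Confirmatory-stage PubChem screen for compounds that inhibit SV40 T antigen.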
The target in experiment [9] is T6, Voltage-gated N-type calcium channel alpha-1B subunit/Amyloid beta A4 precursor protein-binding family A member 1 (Homo sapiens, UniProt Q00975+Q02410). The format is protein assay.
T6 sequence (Q00975 whole entry): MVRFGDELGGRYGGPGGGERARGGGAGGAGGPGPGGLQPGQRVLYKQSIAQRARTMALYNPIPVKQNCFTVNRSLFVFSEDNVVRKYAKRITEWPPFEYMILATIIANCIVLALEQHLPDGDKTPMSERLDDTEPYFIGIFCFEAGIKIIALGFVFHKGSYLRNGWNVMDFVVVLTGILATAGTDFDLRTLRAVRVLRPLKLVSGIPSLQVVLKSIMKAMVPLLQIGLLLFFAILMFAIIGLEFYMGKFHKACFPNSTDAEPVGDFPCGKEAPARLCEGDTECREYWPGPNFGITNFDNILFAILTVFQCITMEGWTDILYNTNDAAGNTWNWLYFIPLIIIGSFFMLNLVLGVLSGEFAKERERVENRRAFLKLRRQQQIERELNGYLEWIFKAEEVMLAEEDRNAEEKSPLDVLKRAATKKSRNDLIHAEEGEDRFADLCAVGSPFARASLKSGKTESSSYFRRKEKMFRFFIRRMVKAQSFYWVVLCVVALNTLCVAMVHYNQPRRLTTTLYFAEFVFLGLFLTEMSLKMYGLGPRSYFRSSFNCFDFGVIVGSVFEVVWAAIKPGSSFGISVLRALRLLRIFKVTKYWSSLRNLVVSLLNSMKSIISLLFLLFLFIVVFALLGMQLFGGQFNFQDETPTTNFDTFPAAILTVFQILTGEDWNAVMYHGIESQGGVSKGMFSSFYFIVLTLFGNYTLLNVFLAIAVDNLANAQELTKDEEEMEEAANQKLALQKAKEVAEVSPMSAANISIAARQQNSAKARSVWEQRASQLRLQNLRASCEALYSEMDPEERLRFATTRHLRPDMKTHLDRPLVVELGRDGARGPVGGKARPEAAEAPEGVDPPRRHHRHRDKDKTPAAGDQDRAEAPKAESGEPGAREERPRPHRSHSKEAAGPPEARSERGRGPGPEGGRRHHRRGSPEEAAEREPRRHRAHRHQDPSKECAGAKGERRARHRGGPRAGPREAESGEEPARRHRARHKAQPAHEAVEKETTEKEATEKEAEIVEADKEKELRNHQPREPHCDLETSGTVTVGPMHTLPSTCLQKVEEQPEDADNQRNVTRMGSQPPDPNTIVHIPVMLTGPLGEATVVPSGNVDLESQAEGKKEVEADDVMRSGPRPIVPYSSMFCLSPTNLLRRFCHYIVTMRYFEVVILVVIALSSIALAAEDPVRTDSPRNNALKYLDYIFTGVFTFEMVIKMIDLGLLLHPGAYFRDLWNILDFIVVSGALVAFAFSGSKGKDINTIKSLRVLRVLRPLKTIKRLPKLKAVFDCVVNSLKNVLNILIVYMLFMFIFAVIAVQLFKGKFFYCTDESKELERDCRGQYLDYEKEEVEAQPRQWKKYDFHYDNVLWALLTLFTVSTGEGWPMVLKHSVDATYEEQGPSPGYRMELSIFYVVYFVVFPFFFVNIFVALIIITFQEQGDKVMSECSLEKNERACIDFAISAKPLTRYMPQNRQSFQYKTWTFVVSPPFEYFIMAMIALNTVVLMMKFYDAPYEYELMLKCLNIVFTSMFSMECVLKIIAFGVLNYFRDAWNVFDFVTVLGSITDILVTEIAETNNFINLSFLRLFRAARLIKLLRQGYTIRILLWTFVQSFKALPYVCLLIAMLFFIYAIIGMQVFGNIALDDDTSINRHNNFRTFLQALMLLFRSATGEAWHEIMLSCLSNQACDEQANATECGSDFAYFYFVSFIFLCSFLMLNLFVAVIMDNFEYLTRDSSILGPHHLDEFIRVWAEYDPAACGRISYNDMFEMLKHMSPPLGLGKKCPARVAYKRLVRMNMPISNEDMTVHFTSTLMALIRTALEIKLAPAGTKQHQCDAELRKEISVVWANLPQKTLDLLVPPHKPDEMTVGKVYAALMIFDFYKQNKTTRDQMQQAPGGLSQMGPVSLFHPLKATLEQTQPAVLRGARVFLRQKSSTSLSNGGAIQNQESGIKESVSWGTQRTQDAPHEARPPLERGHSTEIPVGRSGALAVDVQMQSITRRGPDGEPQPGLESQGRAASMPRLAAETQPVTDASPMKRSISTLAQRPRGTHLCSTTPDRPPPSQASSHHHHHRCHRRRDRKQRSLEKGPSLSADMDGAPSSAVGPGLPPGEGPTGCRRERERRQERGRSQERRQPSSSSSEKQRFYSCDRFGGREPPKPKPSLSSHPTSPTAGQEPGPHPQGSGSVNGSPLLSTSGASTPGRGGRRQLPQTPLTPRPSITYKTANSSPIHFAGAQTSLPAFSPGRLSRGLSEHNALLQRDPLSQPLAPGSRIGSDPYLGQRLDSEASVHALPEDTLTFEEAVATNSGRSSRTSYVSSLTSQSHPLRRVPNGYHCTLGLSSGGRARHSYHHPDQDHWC
T6 sequence (Q02410 whole entry): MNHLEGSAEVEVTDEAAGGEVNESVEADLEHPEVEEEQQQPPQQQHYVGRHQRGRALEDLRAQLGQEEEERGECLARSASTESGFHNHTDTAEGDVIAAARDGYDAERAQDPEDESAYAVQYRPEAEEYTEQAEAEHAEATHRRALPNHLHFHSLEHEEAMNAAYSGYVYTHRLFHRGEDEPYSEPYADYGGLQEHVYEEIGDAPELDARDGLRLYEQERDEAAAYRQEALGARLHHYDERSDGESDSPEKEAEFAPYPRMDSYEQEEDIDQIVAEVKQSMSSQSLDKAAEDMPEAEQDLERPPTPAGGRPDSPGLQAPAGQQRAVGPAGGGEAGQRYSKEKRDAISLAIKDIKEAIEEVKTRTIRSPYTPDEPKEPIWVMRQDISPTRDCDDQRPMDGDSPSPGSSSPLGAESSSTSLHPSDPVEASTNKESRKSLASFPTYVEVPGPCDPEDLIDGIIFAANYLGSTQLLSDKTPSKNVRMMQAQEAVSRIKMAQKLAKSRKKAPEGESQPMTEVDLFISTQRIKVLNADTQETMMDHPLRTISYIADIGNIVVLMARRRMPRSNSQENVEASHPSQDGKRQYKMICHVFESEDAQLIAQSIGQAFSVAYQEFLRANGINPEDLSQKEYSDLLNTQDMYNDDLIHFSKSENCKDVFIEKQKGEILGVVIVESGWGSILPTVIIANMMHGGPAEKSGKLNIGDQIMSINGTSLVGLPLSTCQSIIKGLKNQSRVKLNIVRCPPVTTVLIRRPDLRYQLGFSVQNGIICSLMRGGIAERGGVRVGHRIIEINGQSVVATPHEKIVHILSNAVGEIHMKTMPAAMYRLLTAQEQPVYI
Experiment [10] in a line: THP-1 cell cytotoxicity, dose response, cytotoxicity control for non-replicating M. tuberculosis project (AID 489025). It counts as functional.
The target in experiment [11] is T6, Voltage-gated N-type calcium channel alpha-1B subunit/Amyloid beta A4 precursor protein-binding family A member 1. It counts as protein assay. The source holds these as a separate data set.
For experiment [12], the target named is T4, DNA dC->dU-editing enzyme APOBEC-3A. The experiment can be described thus: Dose Response confirmation of small molecule APOBEC3A DNA Deaminase Inhibitors via a fluorescence-based single-stranded DNA deaminase assay. [Related pubchem assays (depositor defined):AID493011, AID493024]. It counts as functional.
Experiment [13] addresses T5, DNA dC->dU-editing enzyme APOBEC-3G. It counts as functional.
Experiment [14] concerns the target Eukaryotic translation initiation factor 4H (Homo sapiens, UniProt Q15056). In words: human eIF4H binding inhibitors, primary screen, translation initiation inhibitor project, biochemical, uHTS, fluorescence polarization (AID 2012).
Experiment [15] concerns the target Polyadenylate-binding protein 1 (Homo sapiens, UniProt P11940). The experiment can be described thus: PABP poly(A) RNA binding inhibitors, primary screen, biochemical, fluorescence polarization, uHTS (AID 2014).
The test system of experiment [16] is Streptococcus sp. 'group A'. In words: growth inhibition of control SK(-) GAS strain, dose response, counter-screen for streptokinase expression inhibitor project, luminescence, kanamycin, BacTiterGlo, confirmation (AID 1900). It counts as functional, organism-based.
Experiment [17] has as its system Streptococcus. The experiment can be described thus: Group A Streptococcus viability loss, dose response, counter-screen for streptokinase expression inhibitor project, luminescence, BacTiterGlo (AID 1915).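 Also: potency for reduction of bacterial viability or growth.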 It counts as functional, organism-based.
Experiment [18] deals with T7, Intestinal-type alkaline phosphatase (Homo sapiens, UniProt P09923). The experiment can be described thus: human IAP activators, dose response, biochemical, luminescent, uHTS hits, set 2 (AID 488817).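 Also: potency of activators that raise enzyme activity.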 The format is functional.
T7 sequence (P09923 whole entry): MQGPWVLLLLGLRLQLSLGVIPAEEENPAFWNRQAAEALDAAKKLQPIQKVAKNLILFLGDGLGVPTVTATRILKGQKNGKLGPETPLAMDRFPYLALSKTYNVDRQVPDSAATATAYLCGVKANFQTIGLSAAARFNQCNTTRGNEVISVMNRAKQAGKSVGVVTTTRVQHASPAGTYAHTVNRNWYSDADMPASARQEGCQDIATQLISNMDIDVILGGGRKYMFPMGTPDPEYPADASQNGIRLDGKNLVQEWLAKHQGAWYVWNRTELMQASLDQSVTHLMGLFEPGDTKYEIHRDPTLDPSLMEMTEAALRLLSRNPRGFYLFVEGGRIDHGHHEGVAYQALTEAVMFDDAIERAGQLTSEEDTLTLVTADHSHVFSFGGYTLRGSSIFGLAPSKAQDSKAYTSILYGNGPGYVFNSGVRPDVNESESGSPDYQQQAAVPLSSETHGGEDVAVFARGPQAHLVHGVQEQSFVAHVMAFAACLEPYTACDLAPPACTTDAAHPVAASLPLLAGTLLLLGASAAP
Experiment [19] addresses Intestinal-type alkaline phosphatase (Mus musculus, UniProt P24822). The experiment can be described thus: PubChem AID 488874. It counts as functional.
The target in experiment [20] is T8, Streptokinase A (Streptococcus pyogenes serotype M1, UniProt P10520).
T8 sequence (P10520 whole entry): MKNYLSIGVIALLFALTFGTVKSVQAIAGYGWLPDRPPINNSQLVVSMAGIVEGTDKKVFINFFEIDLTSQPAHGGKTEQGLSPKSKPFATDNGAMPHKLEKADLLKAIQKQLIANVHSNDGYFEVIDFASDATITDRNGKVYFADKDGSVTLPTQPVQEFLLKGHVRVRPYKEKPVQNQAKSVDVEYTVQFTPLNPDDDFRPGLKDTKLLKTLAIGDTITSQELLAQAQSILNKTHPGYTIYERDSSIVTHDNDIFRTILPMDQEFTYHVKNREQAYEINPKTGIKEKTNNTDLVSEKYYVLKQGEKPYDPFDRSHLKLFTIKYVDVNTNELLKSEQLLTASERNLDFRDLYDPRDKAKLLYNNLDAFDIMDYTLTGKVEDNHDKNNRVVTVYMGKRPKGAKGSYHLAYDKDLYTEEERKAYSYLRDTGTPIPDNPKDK
In words: S. pyogenes streptokinase expression inhibitors, potency, dose response, plasminogen activation absorbance, OD405 (AID 1914).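 Also: secreted streptokinase activity via plasminogen activation per viability signal from cell pellet.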 The format is functional, Streptococcus pyogenes M1 GAS.

Experiment [21] addresses T7, Intestinal-type alkaline phosphatase. In words: human intestinal alkaline phosphatase activators, dose response, biochemical, luminescence, uHTS hits (AID 463120). The format is functional.
The target in experiment [22] is T9, Alkaline phosphatase, tissue-nonspecific isozyme (Homo sapiens, UniProt P05186).
T9 sequence (P05186 whole entry): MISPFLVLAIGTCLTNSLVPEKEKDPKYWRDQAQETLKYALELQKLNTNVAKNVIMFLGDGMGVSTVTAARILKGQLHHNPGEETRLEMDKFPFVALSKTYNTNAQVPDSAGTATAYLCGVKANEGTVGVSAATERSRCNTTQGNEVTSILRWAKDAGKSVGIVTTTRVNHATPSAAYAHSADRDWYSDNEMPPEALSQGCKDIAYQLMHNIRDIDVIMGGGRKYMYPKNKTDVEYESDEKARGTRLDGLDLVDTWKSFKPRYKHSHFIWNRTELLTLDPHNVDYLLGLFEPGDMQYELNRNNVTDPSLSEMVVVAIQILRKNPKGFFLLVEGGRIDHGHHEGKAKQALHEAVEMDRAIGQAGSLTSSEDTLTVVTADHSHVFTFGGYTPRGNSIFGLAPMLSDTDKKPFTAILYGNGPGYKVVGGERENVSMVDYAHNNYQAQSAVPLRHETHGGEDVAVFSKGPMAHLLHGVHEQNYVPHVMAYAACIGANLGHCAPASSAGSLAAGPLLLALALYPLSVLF
In words: TNAP enzyme activators, dose response, selectivity assay for human IAP activator project, biochemical, TNAP isozyme, human IAP uHTS hits (AID 488886).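 Also: potency of compounds raising TNAP activity as a selectivity check on IAP activators.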 The format is functional.

Experiment [23] has as its target Induced myeloid leukemia cell differentiation protein Mcl-1 (Homo sapiens, UniProt Q07820). It counts as functional.
Experiment [24] concerns the target T10, Heat shock factor protein 1 (Mus musculus, UniProt P38532).
T10 sequence (P38532 whole entry): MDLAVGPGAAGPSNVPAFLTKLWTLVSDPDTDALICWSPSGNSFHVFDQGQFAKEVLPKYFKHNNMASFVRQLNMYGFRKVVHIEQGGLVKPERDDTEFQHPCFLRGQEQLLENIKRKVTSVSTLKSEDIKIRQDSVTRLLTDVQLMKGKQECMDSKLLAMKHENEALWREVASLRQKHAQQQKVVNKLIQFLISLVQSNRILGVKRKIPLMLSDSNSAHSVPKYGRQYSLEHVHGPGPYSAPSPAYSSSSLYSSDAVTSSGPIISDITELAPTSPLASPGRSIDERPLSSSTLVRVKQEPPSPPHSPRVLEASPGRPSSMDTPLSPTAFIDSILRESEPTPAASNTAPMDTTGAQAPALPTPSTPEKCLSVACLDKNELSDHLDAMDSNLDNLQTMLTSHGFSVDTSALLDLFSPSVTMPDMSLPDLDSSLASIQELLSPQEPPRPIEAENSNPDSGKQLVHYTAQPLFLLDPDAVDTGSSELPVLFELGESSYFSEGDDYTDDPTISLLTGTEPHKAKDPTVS
The experiment can be described thus: HSF1 potentiators in luciferase reporter cells, confirmation, cell-based, NIH3T3, luminescence, dose retest (AID 435004).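 Also: stress induced by proteasome inhibitor MG132 added 30 min after compound; luciferase reporter driven by HSF1 response element in NIH3T3 cells; actives raise luminescence as potentiators of the MG132 stress response.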 The format is functional.

Active and inactive are the calls of the source.

Glucose-6-phosphate 1-dehydrogenase, sequence (P11413 whole entry): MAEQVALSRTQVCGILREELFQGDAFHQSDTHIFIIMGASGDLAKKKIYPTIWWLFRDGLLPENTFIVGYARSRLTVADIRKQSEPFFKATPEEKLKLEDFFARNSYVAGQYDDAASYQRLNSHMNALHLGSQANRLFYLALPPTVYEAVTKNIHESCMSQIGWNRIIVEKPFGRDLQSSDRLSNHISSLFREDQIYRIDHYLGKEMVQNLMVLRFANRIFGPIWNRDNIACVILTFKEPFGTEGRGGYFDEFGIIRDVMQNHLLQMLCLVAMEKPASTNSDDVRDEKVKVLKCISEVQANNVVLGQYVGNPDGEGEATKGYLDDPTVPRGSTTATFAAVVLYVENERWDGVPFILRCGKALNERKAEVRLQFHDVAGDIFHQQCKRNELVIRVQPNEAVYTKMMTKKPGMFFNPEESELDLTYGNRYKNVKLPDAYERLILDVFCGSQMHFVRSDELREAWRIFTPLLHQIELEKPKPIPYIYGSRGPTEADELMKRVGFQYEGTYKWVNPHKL

For the molecule `COc1cc2c(cc1OC)-c1cc3ccc4c(c3c[n+]1CC2)OCO4`, the IC50 in experiment [1] is 4.17 µM (active); in [2], 8.68 µM (active). Further, the AC50 in [3] was 20.5 µM (active).
On to `COc1cc(/C=N/n2c(S)nnc2-c2cc(C)[nH]n2)cc(OC)c1OC`, for which the IC50 in [4] was 82.2 µM (active); in experiment [5], > 100 µM (inactive); in experiment [6] it was 2.5 µM (active).
`CCOc1ccc(NC(=O)Cn2sc3nc(C)cc(C)c3c2=O)cc1`: the IC50 in experiment [7] is 24.1 µM (inactive); in [8], > 100 µM (active); in experiment [5], > 100 µM (inactive); in experiment [9] it was > 50 µM (inactive); in experiment [6], 2.96 µM (active); in [11] it was 13.1 µM (active). Further, the CC50 in [10] is 36.1 µM (active).
With `Cc1ccc(C)c(NC(=O)c2cc[n+](C)cc2)c1`, the IC50 in experiment [12] is 2.08 µM (active); in experiment [13], 4.76 µM (active).
Take `CCOC(=O)COc1ccc(Br)cc1/C=C1\SC(N)=NC1=O`: the IC50 was 8.37 µM (active) in experiment [12], > 100 µM (inactive) in [14], 8.41 µM (active) in [13] and 7.13 µM (active) in experiment [15].
For the molecule `O=C(CCN1C(=O)/C(=C/c2ccccc2Cl)SC1=S)NNC(=O)c1ccccc1O`, the EC50 in experiment [16] was 3.63 µM (active); in experiment [17] it was 14.6 µM (active); in experiment [18], 17.7 µM (active); in experiment [20], 8.36 µM (active); in [21] it was 7.7 µM (active); in experiment [22] it was 23.2 µM (active). For the same molecule, in experiment [19], the IC50 was 66.5 µM (active).
On to `COc1cc(SSc2cc(OC)cc([N+](=O)[O-])c2N)c(N)c([N+](=O)[O-])c1`, for which the IC50 in experiment [7] was 20.9 µM (inactive); in experiment [5] it was > 100 µM (inactive); in experiment [6], 2.54 µM (active); in experiment [23] it was > 54 µM (active). In addition, the EC50 in experiment [24] was > 260 µM (inactive).
